These compounds were tested against T1, GHSR1a receptor (Homo sapiens, UniProt Q92847) (assay: 125I-Ghrelin binding assay). Settings: Binding pKi, displacement of 125I-ghrelin (0.053 nM), membranes of HEK293 cells transfected with GHSR1a; Cheng-Prussoff; '—' not defined.
T1 construct: expressed in transfected cells; host or cells: HEK293 (membranes)
Protocol: Plasmid DNA containing the GHSR1a receptor (12.5 ug/dish) in 0.675 ml DMEM was transfected into the cells by mixing with 180 ul PolyFect, 15 min later mixing in 2.25 ml 10% CS/DMEM, and transferring the mixture into the dish. At 16-18 h post transfection, medium was replaced with 25 ml fresh 10% FCS/1% PSG/DMEM to each dish for another 18-20 h. At approximately 48 hours post-transfection, cells were harvested in ice-cold membrane buffer (20 mM HEPES, 6 mM MgCl2, 1 mM EDTA, pH to 7.2) using a cell scraper, and pelleted by centrifugation.
Pelleted cells were added to a nitrogen cavitation chamber and 900 bar of pressure applied for 30 min. The pressure was slowly released the cavitated cells collected in 50 ml falcon tubes. The tubes were centrifuged at 1000 rpm, 4° C. for 10 min, and the supernatant collected. This centrifugation and collection was repeated two more times until the supernatant was free of precipitate (membranes are still in suspension). The supernatant was poured into a 50 ml centrifuge tube and centrifuged at 10.000 rpm, 4° C. for 20 min. The supernatant was discarded and the pellet re-suspended in 750 μl membrane binding buffer using a chilled 1 ml syringe with 25G5/8 needle to re-suspend membranes. The protein concentration was determined using the BioRad Protein Assay Dye Reagent according to the manufacturers instructions. The protein concentration was adjusted to 5 mg/ml and aliquots snap-frozed and stored at −80 C until use.
Membranes were thawed rapidly; diluted with binding buffer (25 mM Hepes+5 mM MgCl2, 1 mM CaCl2, 2.5 mM EDTA and 0.2% BSA) to a protein concentration of 0.8 ug/30 ul and placed on ice. 96-well plates (U-bottom wells) were prepared with serial dilutions (8 doses, 40 ul/w) of the test compounds. Membranes (30 uL/well) were then added, and incubated with test ligands for 30 min at room temperature with shaking. […] Binding was terminated by filtration through GF/B filters (presoaked with 0.1% polyethylenimine) with a Brandel 96-well harvester. The filters were washed with ice-cold binding buffer (150 ml/plate) and allowed to air-dry for 30 min. 50 ul MicroScient-20 cocktail was added to each dried well, the plates were sealed, and counted for 2 min/well using a TopCount scintillation counter (Packard).

T1 sequence (Q92847 whole entry): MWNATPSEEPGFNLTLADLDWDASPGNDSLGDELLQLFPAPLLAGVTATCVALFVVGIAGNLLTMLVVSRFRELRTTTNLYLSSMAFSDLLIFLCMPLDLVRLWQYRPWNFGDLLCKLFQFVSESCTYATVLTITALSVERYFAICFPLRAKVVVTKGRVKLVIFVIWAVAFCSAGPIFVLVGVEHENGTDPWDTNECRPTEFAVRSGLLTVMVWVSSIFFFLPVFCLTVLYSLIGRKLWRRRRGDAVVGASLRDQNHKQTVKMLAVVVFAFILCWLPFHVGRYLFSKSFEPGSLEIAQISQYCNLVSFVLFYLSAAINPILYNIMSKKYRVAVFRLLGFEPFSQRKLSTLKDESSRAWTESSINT

Compound | Ki [nM]
COc1cccc2c(C(=O)NCc3cccc(C)c3)cn(CCCN3[C@@H]4CC[C@H]3CC(CC(=O)c3ccccc3)C4)c12 (some centres unmarked) | 63.1
COc1cccc2c(C(=O)NCC(C)C)cn(CCCN3CCC(c4nc5ccccc5s4)CC3)c12 [drawing 706] | 501

Same assay, conditions: displacement of 125I-ghrelin (0.053 nM), membranes of HEK293 cells transfected with GHSR1a; Cheng-Prussoff; '—' not defined; read-out: Binding pKi (converted)

Compound | Ki [nM]
CC(=O)c1c(C)n(CCCN2C3CCC2CC(CCc2ccccc2)C3)c2c(Br)cccc12 (centres unmarked) | 200
O=C(c1cn(CCCN2C3CCC2CC(CCc2ccc(Cl)cc2)C3)c2ncccc12)C(F)(F)F (centres unmarked) | 251
CCc1cccc2c(C(C)=O)cn(CCCN3C4CCC3CC(CC(=O)c3ccc(Cl)cc3)C4)c12 (centres unmarked) | 501
CC(=O)c1c(C)n(CCCN2CCC(CCOc3ccc(Cl)cc3)CC2)c2c(Br)cccc12 | 631
CCCOC1CCN(CCCn2cc(C(C)=O)c3cccc(OC)c32)CC1 [drawing 713] | 1260

These compounds were tested against Ghrelin receptor (Homo sapiens, UniProt Q92847) (assay: Receptor Selection and Amplification Technology (R-SAT) assay). Settings: not given.
Sequence of Ghrelin receptor (Q92847 whole entry): as above
Format: cell-based
Parameters: expressed in transfected cells; host or cells: NIH3T3

Compound | RSAT Eff(%)
O=C(NCc1cccc(Cl)c1)c1cn(CCCN2CCC(Oc3ccc(F)cc3)CC2)c2ccccc12.O=C(O)C(=O)O [drawing 596] | 142

Same assay, conditions: […]; '—' not defined (nd used separately); read-out: RSAT pIC50 (converted)

Compound | IC50 [nM]
COc1cccc2c(C(C)=O)cn(CCCN3CCC(Oc4ccc(F)cc4)CC3)c12 [drawing 256] | 3.98

Same assay, conditions: negative logarithm of ligand concentration causing 50% inhibition of constitutive receptor response; transfected NIH3T3 cells; '—' not defined (nd used separately); read-out: RSAT pIC50 (converted)

Compound | IC50 [nM]
COc1cccc2c(C(C)=O)cn(CCCN3CCC(Oc4ccc(F)cc4)CC3)c12 [drawing 241] | 2.51
CC(=O)c1cn(CCCN2CCC(c3nc4ccccc4s3)CC2)c2ccccc12 [drawing 462] | 100
CC(=O)c1cn(CCCN2CCC(c3nc4ccccc4s3)CC2)c2ccccc12 [drawing 466] | 126
CC(=O)c1cn(CCCN2CCC(Oc3ccc(F)cc3)CC2)c2ccccc12.O=C(O)C(=O)O [drawing 520] | 251
COc1ccccc1C1CCN(CCCn2cc(C(C)=O)c3ccccc32)CC1 [drawing 533] | 316

Same assay, conditions: percent inhibition at saturating ligand, normalized to reference ligand Substance P analog = 100%

Compound | RSAT Eff(%)
COc1cccc2c(C(C)=O)cn(CCCN3CCC(Oc4ccc(F)cc4)CC3)c12 [drawing 241] | 104
CC(=O)c1cn(CCCN2CCC(c3nc4ccccc4s3)CC2)c2ccccc12 [drawing 466] | 99
CC(=O)c1cn(CCCN2CCC(Oc3ccc(F)cc3)CC2)c2ccccc12.O=C(O)C(=O)O [drawing 520] | 128

Same assay, conditions: percent inhibition at saturating ligand, normalized to reference ligand Substance P analog = 100%; read-out: RSAT Eff(%)

Compound | Emax [%]
CC(=O)c1cn(CCCN2CCC(c3nc4ccccc4s3)CC2)c2ccccc12 [drawing 462] | 115
CC(=O)c1cn(CCCN2CCC(Oc3ccccc3Cl)CC2)c2ccccc12 [drawing 499] | 105
COc1ccccc1C1CCN(CCCn2cc(C(C)=O)c3ccccc32)CC1 [drawing 533] | 109

Same assay, conditions: read-out: RSAT Eff(%)

Compound | Emax [%]
CC(=O)c1cn(CCCCN2CCC(Oc3ccc(F)cc3)CC2)c2ccccc12 | 41
CC(=O)c1cn(CC(O)CN2CCN(C(C)c3ccccc3)CC2)c2ccccc12 (centres unmarked) | 23
CC(=O)c1cn(CC(C)CN2CCC(O)(Cc3ccccc3)CC2)c2ccccc12 (centres unmarked) | -3
CC(=O)c1cn(CCCCN2CCC(O)(Cc3ccccc3)CC2)c2ccccc12 | 24
CC(=O)c1cn(CCCCN2C3CCC2CC(O)(c2ccc(F)cc2)C3)c2ccccc12 (centres unmarked) | 2
CCC(=O)c1cn(CCCN2C3CCC2CC(O)(c2ccc(F)cc2)C3)c2ccccc12 (centres unmarked) | 18
O=C(c1cn(CCCN2CCC(S(=O)(=O)c3ccc(Cl)cc3)CC2)c2ccccc12)C(F)(F)F | 6
CCC(=O)c1cn(CCCN2CCC(S(=O)(=O)c3ccc(Cl)cc3)CC2)c2ccccc12 | 1
CCN(CC)C(=O)C1CCCN(CCCn2cc(C(C)=O)c3cccc(OC)c32)C1 (centres unmarked) | 16
COc1cccc2c(C(C)=O)cn(CCCN3C4CCC3CC(O)(c3ccc(F)cc3)C4)c12 (centres unmarked) | 3
CC(=O)c1cn(CCCN2CCC(CCOc3ccc(Cl)cc3)CC2)c2c(Cl)cccc12 | 53
CC(=O)c1cn(CCCN2CCN(CCOc3ccc(Cl)cc3)CC2)c2c(C)cccc12 | 53
CC(=O)c1cn(CCCN2CCN(CCOc3ccc(Cl)cc3)CC2)c2c(Br)cccc12 | 12
COc1cccc2c(C(=O)C3CC3)cn(CCCN3CCN(CCOc4ccc(Cl)c5ccccc45)CC3)c12 | 44
CC(=O)c1cn(CCCN2CCN(CCOc3ccc(Cl)cc3)CC2)c2c(Cl)cccc12 | 32
COc1cccc2c(C(=O)NCc3cccc(C)c3)cn(CCCN3CCN(CCOc4ccc(Cl)c5ccccc45)CC3)c12 | 2
COc1cccc2c(C(=O)NCc3cccc(Cl)c3)cn(CCCN3CCN(CCOc4ccc(Cl)c5ccccc45)CC3)c12 | 59
CC(=O)c1c(C)n(CCCN2CCC3(CC2)CC(=O)c2ccccc2O3)c2c(Br)cccc12 | 8
CCc1cccc2c(C(C)=O)cn(CCCN3CCCC(Oc4ccc(Cl)cc4)C3)c12 (centres unmarked) | 13

Compound | Emax [%]
COc1cccc2c(C(C)=O)cn(CC(C)CN3CCC4(CC3)CC(=O)c3ccccc3O4)c12 (centres unmarked) | 55
CC(=O)c1cn(CCCN2CCC(CCOc3ccc(Cl)cc3)CC2)c2c(C#N)cccc12 | 27
CC(=O)c1c(C)n(CCCN2CCN(CCOc3ccc(Cl)cc3)CC2)c2c(Br)cccc12 | -13
CC(=O)c1c(C)n(CCCN2CCC(c3nc(-c4ccncc4)no3)CC2)c2c(Br)cccc12 | 25
CC(=O)c1c(C)n(CCCN2CCC(c3nc(-c4cccnc4)no3)CC2)c2c(Br)cccc12 | 12
CCc1cccc2c(C(C)=O)cn(CCCN3CCN(CCOc4ccc(Cl)cc4)CC3)c12 | 24
CCc1cccc2c(C(C)=O)cn(CCCN3CCC(c4nc(-c5cccnc5)no4)CC3)c12 | 61
COc1cccc2c(C(C)=O)cn(CC(C)CNCCOc3ccccc3)c12 (centres unmarked) | 29
COc1cccc2c(C(C)=O)cn(CC(C)CN3CCN(CCOc4ccccc4)CC3)c12 (centres unmarked) | -7
COc1cccc2c(C(C)=O)cn(CC(C)CN3CCCN(CCc4ccccc4)CC3)c12 (centres unmarked) | 31
COc1cccc2c(C(C)=O)cn(CC(C)CN3CCC(c4nc(-c5ccncc5)no4)CC3)c12 (centres unmarked) | 78
COc1cccc2c(C(C)=O)cn(CC(C)CN3CCC(c4nc(-c5cccnc5)no4)CC3)c12 (centres unmarked) | 83
COc1cccc2c(C(=O)Cc3ccccc3)cn(CCCN3CCN(CCOc4ccc(Cl)c5ccccc45)CC3)c12 | 46
CC(=O)c1cn(CCCN2CCN(CCOc3ccc(Cl)cc3)CC2)c2c(C#N)cccc12 | 4
CC(=O)c1cn(CCCNCCOc2ccccc2)c2c(C#N)cccc12 | 11
CC(=O)c1cn(CCCN2CCN(CCOc3ccc(Cl)c4ccccc34)CC2)c2c(C#N)cccc12 | 53
CC(=O)c1cn(CCCN2CCCC(Cc3ccccc3Cl)C2)c2c(C)cccc12 (centres unmarked) | 38
CC(=O)c1cn(CCCN2CCC(Cc3ccccc3Cl)C2)c2c(C)cccc12 (centres unmarked) | 47
CC(=O)c1cn(CCCN2C3CCC2CC(CC(=O)c2ccc(Cl)cc2)C3)c2c(C)cccc12 (centres unmarked) | 19

Compound | Emax [%]
CC(=O)c1cn(CCCN2CCC3(CC2)CC(=O)c2ccccc2O3)c2c(Br)cccc12 | 3
CC(=O)c1cn(CCCN2CCCC(Cc3ccccc3Cl)C2)c2c(Br)cccc12 (centres unmarked) | -18
CC(=O)c1cn(CCCN2C3CCC2CC(CC(=O)c2ccc(Cl)cc2)C3)c2c(Br)cccc12 (centres unmarked) | 33
CC(=O)c1cn(CCCN2C3CCC2CC(Oc2ccccc2Cl)C3)c2c(Br)cccc12 (centres unmarked) | 65
COc1cccc2c(C(=O)C3CC3)cn(CCCN3CCCC(Cc4ccccc4Cl)C3)c12 (centres unmarked) | 28
CC(=O)c1cn(CCCN2CCC3(CC2)CC(=O)c2ccccc2O3)c2c(Cl)cccc12 | 40
CC(=O)c1cn(CCCN2CCCC(Oc3ccc(Cl)cc3)C2)c2c(Cl)cccc12 (centres unmarked) | 7
CC(=O)c1cn(CCCN2CCCC(Cc3ccccc3Cl)C2)c2c(Cl)cccc12 (centres unmarked) | 47
CC(=O)c1cn(CCCN2CCC(Cc3ccccc3Cl)C2)c2c(Cl)cccc12 (centres unmarked) | 37
CC(=O)c1cn(CCCN2C3CCC2CC(Oc2ccccc2Cl)C3)c2c(Cl)cccc12 (centres unmarked) | 60
COc1cccc2c(C(=O)c3ccccc3)cn(CCCN3CCCC(Oc4ccc(Cl)cc4)C3)c12 (centres unmarked) | 48
COc1cccc2c(C(=O)NCc3cccc(C)c3)cn(CCCN3CCCC(Oc4ccc(Cl)cc4)C3)c12 (centres unmarked) | 14
COc1cccc2c(C(=O)NCc3cccc(Cl)c3)cn(CCCN3CCCC(Oc4ccc(Cl)cc4)C3)c12 (centres unmarked) | 31
CC(=O)c1c(C)n(CCCNCCOc2ccccc2)c2c(Br)cccc12 | 5
CCc1cccc2c(C(C)=O)cn(CCCN3CCN(CCOc4ccc(Cl)c5ccccc45)CC3)c12 | 29
CC(=O)c1cn(CCCNC2Cc3ccccc3C2)c2c(C#N)cccc12 | 6
CC(=O)c1cn(CCCN2CCCC(Oc3ccc(Cl)cc3)C2)c2c(C)cccc12 (centres unmarked) | -2
COc1cccc2c(C(=O)NCC(C)C)cn(CCCN3CCCC(Oc4ccc(Cl)cc4)C3)c12 (centres unmarked) | 9
COc1cccc2c(C(C)=O)cn(CCCN3CCC(Oc4ccc(F)cc4)CC3)c12 [drawing 256] | 119

Source: US20070213359A1 (ACADIA Pharmaceuticals Inc., priority 2005, published 2007)
